Results: patent US20120053056A1, “COMPOSITIONS AND METHODS FOR IMPROVING THE COMPATIBILITY OF WATER SOLUBLE HERBICIDE SALTS” (DOW AGROSCIENCES LLC, priority 2010, published 2012)

Columns and labels:
[1] = On-set pH of crystallization of aqueous 2,4-D potassium solution with added crystal inhibitor (CI), pH lowered with 0.2 N sulfuric acid; assay type: physicochemical; conditions: 3% ae 2,4-D K salt in water; CI 0.2 wt %
[2] = Spray solution compatibility (crystal formation) of 2,4-D and glyphosate salts with 2% AMS and added crystal inhibitor; assay type: physicochemical; conditions: 2% AMS, 342 ppm hardness water, 24 h room temperature
Description: Spray solutions were formed from aqueous concentrates of 2,4-D choline (prepared by mixing equimolar amounts of 2,4-D acid and choline hydroxide in water) or 2,4-D DMA and various glyphosate salts (potassium, isopropyl ammonium or dimethyl ammonium) at various concentrations (weight percent acid equivalent basis) of the respective active ingredients with and without added polyethylenimine or polyvinylamine crystal inhibitor (CI).

With NCCNCCNCCNCCN [TEPA, tetraethylenepentamine] the “On-set pH of Crystallization” value [1] was 5.68, the “Result (crystals observed 24 hours after preparation of tank mixture)” value (“Result” below) ([2]; 2,4-D choline 1.8 wt % ae + WeatherMax 1.8 wt % ae, CI 0.2%) was 1 and the “Result” value ([2]; 2,4-D choline 1.8 wt % ae + WeatherMax 1.8 wt % ae, CI 0.4%) was 0. For the same compound, the “Result” value ([2]; 2,4-D choline 1.8 wt % ae + WeatherMax (glyphosate potassium) 1.8 wt % ae, CI 0.1%) was 3.
